Test results: ChEMBL document CHEMBL1201862, “PubChem BioAssay data set” (2004)
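How tested: cells in 96-well plates exposed to compound for 48 hours at five concentrations. GI50 marks 50% less growth.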 Activity calls are given as the source filed them. Cut-off read from the data, not from the text of the source: active = GI50 up to about 1.1 µM and inactive = higher.

Key:
Experiment in all cases: DTP human tumour cell line panel, 48 h
[1] = tested on: NCI-H460
[2] = tested on: CAKI-1
[3] = tested on: M14
[4] = tested on: HL-60
[5] = tested on: SF-268
[6] = tested on: SF-539
[7] = tested on: SNB-75
[8] = tested on: SK-MEL-5
[9] = tested on: HCC 2998
[10] = tested on: UO-31
[11] = tested on: MDA-N
[12] = tested on: SK-MEL-2
[13] = tested on: U-251
[14] = tested on: A549
[15] = tested on: MDA-MB-435
[16] = tested on: HOP-62
[17] = tested on: MDA-MB-231
[18] = tested on: NCI-H522
[19] = tested on: HOP-92
[20] = tested on: HT-29

Row | Structure (SMILES) | GI50 [1] | GI50 [2] | GI50 [3] | GI50 [4] | GI50 [5] | GI50 [6] | GI50 [7] | GI50 [8] | GI50 [9] | GI50 [10] | GI50 [11] | GI50 [12] | GI50 [13] | GI50 [14] | GI50 [15] | GI50 [16] | GI50 [17] | GI50 [18] | GI50 [19] | GI50 [20]
1 | CC(=O)OCC1OC(SC2=NC(=O)/C(=C/c3ccccc3)S2)C(OC(C)=O)C(OC(C)=O)C1OC(C)=O (stereo not given) | 42.2 µM (inactive) | 3.78 µM (inactive) | 31.9 µM (inactive) | 14.5 µM (inactive) | 20.1 µM (inactive) | 23 µM (inactive) | 18.2 µM (inactive) | 18.8 µM (inactive) | 28.8 µM (inactive) | 23.1 µM (inactive) | 26.8 µM (inactive) | 80.4 µM (inactive) | 30.9 µM (inactive) | 44 µM (inactive) | 17 µM (inactive) | 38.5 µM (inactive) | 23.3 µM (inactive) | 32.9 µM (inactive) | 15.7 µM (inactive) | 37.8 µM (inactive)
2 | O=C1OCOC2(CCCC2)C1c1ccccc1 (stereo not given) | > 100 µM (inactive) | > 100 µM (inactive) | > 100 µM (inactive) | > 100 µM (inactive) | > 100 µM (inactive) | > 100 µM (inactive) | > 100 µM (inactive) | > 100 µM (inactive) | > 100 µM (inactive) | > 100 µM (inactive) | > 100 µM (inactive) | > 100 µM (inactive) | > 100 µM (inactive) | > 100 µM (inactive) | > 100 µM (inactive) | > 100 µM (inactive) | > 100 µM (inactive) | > 100 µM (inactive) | > 100 µM (inactive) | > 100 µM (inactive)
3 | C=CC(=O)c1ccc2c(c1)OCCOCCOCCOCCOCCO2 | > 100 µM (inactive) | 34.4 µM (inactive) | 20.3 µM (inactive) | > 58.6 µM (inactive) | > 55.6 µM (inactive) | 17.7 µM (inactive) | > 49.3 µM (inactive) | 58.7 µM (inactive) | > 100 µM (inactive) | 26.2 µM (inactive) | 39.2 µM (inactive) | 30.5 µM (inactive) | > 57.5 µM (inactive) | > 100 µM (inactive) | 19.5 µM (inactive) | > 100 µM (inactive) | 21.3 µM (inactive) | 9.48 µM (inactive) | 17 µM (inactive) | 28.9 µM (inactive)
4 | Cn1c(=O)c2c(ncn2CCCCOc2ccc3c(c2)[n+]([O-])nc(N)[n+]3[O-])n(C)c1=O | 31 µM (inactive) | 59.8 µM (inactive) | 29.4 µM (inactive) | 34.9 µM (inactive) | 32.9 µM (inactive) | 21.1 µM (inactive) | 27.9 µM (inactive) | 9.38 µM (inactive) | 19.2 µM (inactive) | > 100 µM (inactive) | 26.1 µM (inactive) | 28.9 µM (inactive) | 18.3 µM (inactive) | 65.6 µM (inactive) | 11.8 µM (inactive) | 22.7 µM (inactive) | 30.5 µM (inactive) | 16.4 µM (inactive) | 4.76 µM (inactive) | 43.2 µM (inactive)
5 | COc1cccc(C2c3cc4c(cc3OC(N3CCCC3)C2C)OCO4)c1O (stereo not given) | 4.6 µM (inactive) | 6.32 µM (inactive) | 3.18 µM (inactive) | 11.3 µM (inactive) | 5.97 µM (inactive) | 3.03 µM (inactive) | 2.4 µM (inactive) | 3.38 µM (inactive) | 12.2 µM (inactive) | 8.26 µM (inactive) | 1.64 µM (inactive) | 4.14 µM (inactive) | 3.49 µM (inactive) | 5.83 µM (inactive) | 1.64 µM (inactive) | 7.52 µM (inactive) | 8.02 µM (inactive) | 4.44 µM (inactive) | 7.82 µM (inactive) | 3.32 µM (inactive)
6 | Clc1cc(OCc2nn3c(Cc4ccccc4)nnc3s2)c(Cl)cc1OCc1nn2c(Cc3ccccc3)nnc2s1 | > 100 µM (inactive) | > 100 µM (inactive) | > 100 µM (inactive) | 68.1 µM (inactive) | 43.8 µM (inactive) | 42.2 µM (inactive) | 1.32 µM (inactive) | 41.8 µM (inactive) | > 100 µM (inactive) | 47.8 µM (inactive) | 79.4 µM (inactive) | > 100 µM (inactive) | 31.6 µM (inactive) | 94.8 µM (inactive) | > 100 µM (inactive) | 33.3 µM (inactive) | 26.4 µM (inactive) | > 100 µM (inactive) | 18.8 µM (inactive) | 76.6 µM (inactive)
7 | CN(C)CCn1c(=O)c2ccc(NCCNCCO)c3c(=O)c4ccccc4n(c1=O)c23 | < 0.01 µM (active) | < 0.0108 µM (active) | 0.14 µM (active) | < 0.01 µM (active) | 0.0471 µM (active) | 0.0428 µM (active) | 0.0445 µM (active) | 0.0716 µM (active) | < 0.0329 µM (active) | 0.126 µM (active) | 0.328 µM (active) | 0.423 µM (active) | 0.0468 µM (active) | < 0.0121 µM (active) | 0.228 µM (active) | 0.0287 µM (active) | 0.22 µM (active) | 0.0581 µM (active) | 0.03 µM (active) | 0.0853 µM (active)
8 | CCN(CC)Cc1c(/C=C\c2cc(OC)c(OC)c(OC)c2)ccc(OC)c1O | 3.48 µM (inactive) | 4.42 µM (inactive) | 2.79 µM (inactive) | 3.85 µM (inactive) | 5.21 µM (inactive) | 2.29 µM (inactive) | 1.84 µM (inactive) | 2.68 µM (inactive) | 3.73 µM (inactive) | 6.14 µM (inactive) | 0.387 µM (active) | 6.62 µM (inactive) | 2.87 µM (inactive) | 4.25 µM (inactive) | 0.264 µM (active) | 5.02 µM (inactive) | 4.28 µM (inactive) | 1.87 µM (inactive) | 8.87 µM (inactive) | 2.76 µM (inactive)
9 | Cc1ccc(-c2ccc3c(c2)Sc2ccccc2O3)n1C | 0.327 µM (active) | 0.303 µM (active) | 0.371 µM (active) | 0.125 µM (active) | 0.791 µM (active) | 0.308 µM (active) | 0.238 µM (active) | 0.356 µM (active) | 0.171 µM (active) | 0.67 µM (active) | 0.0285 µM (active) | 0.13 µM (active) | 0.329 µM (active) | 0.675 µM (active) | 0.0263 µM (active) | 0.614 µM (active) | 1.19 µM (inactive) | 0.0564 µM (active) | 19.8 µM (inactive) | 0.213 µM (active)
10 | COc1ccc(-c2cc(=O)c3c(O)c(OC)c(OC)c(OC)c3o2)cc1 [GARDENIN B] | 24.9 µM (inactive) | > 100 µM (inactive) | 16.5 µM (inactive) | 0.863 µM (active) | > 68.4 µM (inactive) | > 61.7 µM (inactive) | 10.2 µM (inactive) | 5.52 µM (inactive) | 1.71 µM (inactive) | > 100 µM (inactive) | 0.433 µM (active) | 12.8 µM (inactive) | 15.5 µM (inactive) | 10.1 µM (inactive) | 0.431 µM (active) | 24.5 µM (inactive) | 12.6 µM (inactive) | 6.58 µM (inactive) | 27.4 µM (inactive) | 4.17 µM (inactive)
